# Source: patent US20250304617A1, “COMPOUND, SALT OF COMPOUND, ANTIBODY MODIFICATION REAGENT, METHOD FOR PRODUCING MODIFIED ANTIBODY, AND MODIFIED ANTIBODY” (Kagoshima University, priority 2021, published 2025)
# Test: Examination of stability in DMSO (HPLC purity)
# Format: physicochemical
# Conditions: 20 mg/mL in DMSO
# Experimental: The compound A, the compound B, or the comparative example was dissolved in DMSO at a content of 20 mg/mL, allowed to stand at room temperature or −20° C. for a predetermined time, and analyzed by HPLC.
# For the compound A, the compound B, and the comparative example, the ratio of the area of the main peak to the sum of the areas of all peaks (HPLC purity) is shown in Table 1.
smiles,measurement,setting,value
"[N-]=[N+]=NCCCCC1NONC(C(N)=O)CCCCC(NCCCC(=O)C(Cc2ccccc2)NC(=O)CCCC(=O)ON2C(=O)CCC2=O)C(=O)N1 (stereo not shown) [Comparative example, DSG-αZ34C, reference compound]",HPLC purity (ratio of the area of the main peak to the sum of the areas of all peaks),"room temperature, 0 Hours",85%
same,HPLC purity (ratio of the area of the main peak to the sum of the areas of all peaks),"room temperature, 22 Hours",83%
same,HPLC purity (ratio of the area of the main peak to the sum of the areas of all peaks),"−20° C., 0 Days",92%
same,HPLC purity (ratio of the area of the main peak to the sum of the areas of all peaks),"−20° C., 30 Days",85%
